From patent US6656971B2, “Trisubstituted carbocyclic cyclophilin binding compounds and their use” (Guilford Pharmaceuticals Inc., priority 2001, dated 2003)
pIC50: −log10 of the molar value.

How the values were obtained:
human recombinant CyPA = human recombinant CyPA (Homo sapiens, UniProt P62937); test: Semiautomated microtiter plate assay of rotamase activity inhibition, human recombinant CyPA; type: biochemical; conditions: Table B, value without asterisk: human recombinant CyPA
Experimental: Rotamase inhibition was determined using a semiautomated microtiter plate assay modification of the above described assay [see Küllertz et al., Clin. Chem. 44, 502-508 (1998)]. All dilutions of CyPA, peptide substrate, and chymotrypsin were made in 35 mM ice-cold HEPES buffer. Fifty μL of CyPA solution is added to 50 μL of the peptide substrate solution (Phe-Pro-Phe p-nitroanilide, 0.16 mg/ml) in a glass microtiter well plate (the concentration of human recombinant CyP being adjusted so that the reaction rate is increased by a factor of 3 as compared to an uncatalyzed control reaction wherein the peptide substrate is degraded by chymotrypsin alone, in the absence of CyPA and test compound). Using a Beckman Multimek™ 96 automated 96-channel pipettor, 5 μL of test compound solution, or a DMSO blank, were added to each well for a 30 minute preincubation at 4° C. One hundred μL of chymotrypsin solution (1 mg/mL) were added to each well and the absorbance at 390 nm versus time was monitored for 9-10 minutes using a BioRad Ultramark plate reader maintained at 4° C. and the rate constants were determined from the absorbance versus time data files.
IC50 values which were obtained for representative compounds are presented in the following Table B. The cyclophilin utilized was a human recombinant CyPA. […] While CyP A was used in these examples, other CyP proteins can be substituted.

[1] = molecular target: T1, recombinant rat CyPA-GST fusion protein (Rattus norvegicus, UniProt P10111); test: Rotamase (PPIase) inhibition, chymotrypsin-coupled cuvette assay, rat CyPA-GST fusion protein; type: biochemical; conditions: Table A, value with asterisk: recombinant rat CyPA-GST fusion protein
T1 construct: made in house; host or cells: E. coli BL21
T1 sequence (P10111 2-164): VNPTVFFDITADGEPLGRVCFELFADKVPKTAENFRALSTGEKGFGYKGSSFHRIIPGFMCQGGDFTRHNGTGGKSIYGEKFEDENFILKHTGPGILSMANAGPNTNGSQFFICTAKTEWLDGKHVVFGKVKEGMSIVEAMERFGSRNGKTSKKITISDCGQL

human recombinant CyPA, sequence (P62937 whole entry): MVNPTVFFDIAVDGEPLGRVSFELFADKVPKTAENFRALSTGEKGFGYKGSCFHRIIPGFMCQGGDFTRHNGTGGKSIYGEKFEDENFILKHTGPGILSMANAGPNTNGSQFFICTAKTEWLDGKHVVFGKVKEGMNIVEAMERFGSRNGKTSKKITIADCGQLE

Row | pIC50 (human recombinant CyPA) | pIC50 [1] | Molecule
1 | 4.82 |  | O=C(Nc1cc(CNCc2cccc3ccccc23)cc(NC(=O)c2cccc(C(F)(F)F)c2)c1)c1cccc(C(F)(F)F)c1 [Compound 14, N-(5-{[(naphthylmethyl)amino]methyl}-3-{[3-(trifluoromethyl)phenyl]carbonyl-amino}phenyl)[3-(trifluoromethyl)phenyl]formamide]
2 | 5.70 |  | O=C(Nc1cccc(C(F)(F)F)c1)c1cc(Oc2ccc3ccccc3c2)cc(C(=O)Nc2cccc(C(F)(F)F)c2)c1 [Compound 17, (5-(2-naphthyloxy)-3-{N-[3-(trifluoromethyl)phenyl]carbamoyl}phenyl)-N-[3-(trifluoromethyl)phenyl]formamide]
3 | 5.88 |  | O=C(Nc1cccc(C(F)(F)F)c1)c1cc(C(=O)Nc2cccc(C(F)(F)F)c2)cc(-c2ccc3ccccc3c2)c1 [Compound 18, (5-(2-naphthyl)-3-{N-[3-(trifluoromethyl)phenyl]carbamoyl}phenyl)-N-[3-(trifluoromethyl)phenyl]formamide]
4 | 5.55 |  | O=C(NCCc1ccc(Cl)c(Cl)c1)c1cc(COc2ccc(Cl)c(Cl)c2)cc(C(=O)NCCc2ccc(Cl)c(Cl)c2)c1 [Compound 19, 1-[(3,4-dichlorophenyl)oxymethy]-3,5-bis-{[2-(3,4-dichlorophenyl)ethyl]aminocarbonyl}benzene]
5 | 5.33 |  | N#Cc1cccc(NC(=O)c2cc(OCc3ccc(-c4ccccc4C#N)cc3)cc(C(=O)Nc3cccc(C#N)c3)c2)c1 [Compound 22, 1-[4-(2-cyanophenyl)benzyl]loxy-3,5-bis-[(3-cyanophenyl)aminocarbonyl]benzene]
6 |  | 6.67 | O=C1c2ccccc2C(=O)N1Cc1cc(NC(=S)Nc2cc(Cl)cc(Cl)c2)cc(NC(=S)Nc2cc(Cl)cc(Cl)c2)c1 [Compound 27, 2-{[3,5-bis({[(3,5-dichlorophenyl)amino]thioxomethyl}amino)phenyl]methyl}iso-indoline-1,3-dione]
7 |  | 6.04 | COc1ccc(NC(=O)Nc2cc(Cl)cc(Cl)c2)cc1OCc1cc(Cl)cc(Cl)c1 [Compound 28, 1-(3,5-Dichlorophenyl)-3-[3-(3,5-dichlorobenzyloxy)-4-methoxyphenyl]urea]
8 | 5.00 |  | O=S(=O)(c1cc(Cl)cc(Cl)c1)N(c1ccc(Br)c(N(S(=O)(=O)c2cc(Cl)cc(Cl)c2)S(=O)(=O)c2cc(Cl)cc(Cl)c2)c1)S(=O)(=O)c1cc(Cl)cc(Cl)c1 [Compound 30, bis[(3,5-dichlorophenyl)sulfonyl](3-{bis[(3,5-dichlorophenyl)sulfonyl]amino)-4-bromophenyl)amine]
9 | 6.14 |  | S=C(Nc1cc(Cl)cc(Cl)c1)Nc1ccc(Nc2ccc(Oc3ccccc3)cc2)c(NC(=S)Nc2cc(Cl)cc(Cl)c2)c1 [Compound 40, [(3,5-dichlorophenyl)amino]{[3-({[(3,5-dichlorophenyl)amino]thioxomethyl}amino)-4-[(4-phenoxyphenyl)amino]phenyl]amino}methane-1-thione]
10 | 6.41 |  | O=C(CCCCc1ccccc1)Nc1cc(Br)cc(C(=O)NNC(=S)Nc2ccc(Cl)c(Cl)c2)c1 [Compound 53, 1-{3-[(5-Phenyl)valeroylamino]-5-bromobenzoyl}-4-(3,4-dichlorophenyl) thiosemicarbazide]

More lines, now with the values behind:

Row | Molecule | pIC50 (human recombinant CyPA) | pIC50 [1]
11 | 3-{3,5-Bis-[3-(3,5-dichlorophenyl)ureido]-phenyl}propionic acid methyl ester [Compound 5] | 5.89 | 
12 | COC(=O)CCc1cc(NC(=O)Nc2cc(Cl)cc(Cl)c2)cc(NC(=O)Nc2cc(Cl)cc(Cl)c2)c1 [Compound 1, 3-{3,5-Bis-[3-(3,5-dichloro-phenyl)-ureido]-phenyl}-propionic acid methyl ester] | 5.53 | 
13 | O=C(Nc1cccc(C(F)(F)F)c1)c1cc(O)cc(C(=O)Nc2cccc(C(F)(F)F)c2)c1 [Compound 2, 5-Hydroxy-N,N′-bis-(3-trifluoromethyl-phenyl)-isophthalamide] | 4.80 | 
14 | O=C(Nc1cccc(C(F)(F)F)c1)c1cc(C(=O)Nc2cccc(C(F)(F)F)c2)cc(-c2cccc3ccccc23)c1 [Compound 3, 5-Naphthalen-1-yl-N,N′-bis-(3-trifluoromethyl-phenyl)isophthalamide] | 5.47 | 
15 | CC(C)(C)OC(=O)NCCCCCCNC(=O)c1cc(NC(=O)Nc2cc(Cl)cc(Cl)c2)cc(C(=O)Nc2cccc(C(F)(F)F)c2)c1 [Compound 4, {6-[3-[3-(3,5-Dichloro-phenyl)-ureido]-5-(3-trifluoromethyl-phenylcarbamoyl)-benzoylamino]hexyl}carbamic acid tert-butyl ester] | 6.08 | 
16 | O=C(Nc1cc(COc2ccc(Cl)c(Cl)c2)cc(NC(=O)c2cc(Cl)cc(Cl)c2)c1)c1cc(Cl)cc(Cl)c1 [Compound 6, 1,3-(3,5-Dichlorophenyl)-N-[5-(3,4-dichlorophenoxymethyl)-phenyl]amide] | 5.42 | 
17 | O=S(=O)(Nc1cc(COc2ccc(Cl)c(Cl)c2)cc(NS(=O)(=O)c2cccc3ccccc23)c1)c1cccc2ccccc12 [Compound 7, 1,3-(1-Naphthalene)-N-[5-(3,4-dichloro-phenoxymethyl)-phenyl]-sulfonamide] | 5.68 | 
18 | O=C(Nc1cccc(C(F)(F)F)c1)c1cc(OCc2ccccc2)cc(OCc2ccccc2)c1 [Compound 8, 3,5-Di(benzyloxy)-3′-(trifluoromethyl)benzanilid] | 5.32 | 
19 | CS/C(=N\c1cc(Cl)cc(Cl)c1)Nc1cc(NC(=O)c2cc(Cl)cc(Cl)c2)cc(Nc2cccc(C(F)(F)F)c2)c1 [Compound 9, N-(5-{[2-aza-2-(3,5-dichlorophenyl)-1-methylthiovinyl]amino}-3-{[3-(trifluoromethyl)phenyl]amino}phenyl)(3,5-dichlorophenyl)formamide] | 5.80 | 
20 | S=C(Nc1cc(Cl)cc(Cl)c1)Nc1cc(NC(=S)Nc2cc(Cl)cc(Cl)c2)cc(Nc2ccc(Br)cc2)c1 [Compound 11, [(3,5-dichlorophenyl)amino]{[3-({[(3,5-dichlorophenyl)amino]thioxomethyl}amino)-5-[(4-bromophenyl)amino]phenyl]amino}methane-1-thione] | 6.09 | 
21 | O=C(Nc1cc(CN2C(=O)c3ccccc3C2=O)cc(NC(=O)c2cccc(C(F)(F)F)c2)c1)c1cccc(C(F)(F)F)c1 [Compound 12, N-(5-[(1,3-dioxoisoindolin-2-yl)methyl]-3-{[3-(trifluoromethyl)phenyl]carbonylamino}phenyl)[3-(trifluoromethyl)phenyl]formamide] | 5.11 | 
22 | (3,5-dichlorophenyl)-N-[5-({[(3,5-dichlorophenyl)amino]thioxomethyl}amino)-3-{[3-(trifluoromethyl)phenyl]amino }phenyl]formamide [Compound 10] | 6.03 | 
23 | (5-(2-(2-5,6,7,8-tetrahydronaphthyl)ethyl)-3-{N-[3-(trifluoromethyl)phenyl]carbamoyl}phenyl)-N-[3-(trifluoromethyl)phenyl]formamide [Compound 23] | 5.11 | 
24 | (5-(2-(2-naphthyl)ethyl)-3-{N-[3-(trifluoromethyl)phenyl]carbamoyl}phenyl)-N-[3-(trifluoromethyl)phenyl]formamide [Compound 24] | 5.14 | 
25 | [(3,5-dichlorophenyl)amino]{[3-({[(3,5-dichlorophenyl) amino]thioxo-methyl}amino)-4-(3,5-dimethylpyrazolyl)phenyl]amino}methane-1-thione [Compound 39] | 5.95 | 
